The text below walks through data of US10052331B2, “3-(3H-imidazo[4,5-C]pyridin-2-yl)-1H-pyrazolo[3,4-C]pyridine and therapeutic uses thereof” (Samumed, LLC, priority 2014, dated 2018).

Some results are limits rather than exact numbers.

Format in all cases: cell-based
The subject of experiment [1] is Wnt activity (Wnt-responsive Sp5 promoter-luciferase reporter in SW480 cells). The experiment in a line: Wnt activity screening assay: Sp5-Luc reporter gene in SW480 colon carcinoma cells. Particulars: Homo sapiens. In outline: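 IC50 values come from variable-slope four-parameter fits of luciferase signal normalized to DMSO wells. Stable Sp5-Luc reporter SW480 colon carcinoma cells were exposed to compounds in a 3-fold dilution series (source plates from 10 mM stock) for forty-two hours at 37 °C.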
(Reporter assays use an easily measured gene product as a stand-in for the process of interest.)

The subject of experiment [2] is primary human fibroblasts derived from IPF patients (LL29 cells). The experiment in a line: Inhibition of fibrotic process: αSMA staining in TGF-β1-treated primary human fibroblasts from IPF patients (LL29 cells). Particulars: Fibroblast, 96 h, LL29 cells treated with TGF-β1 (20 ng/mL), 4 days, 11-point dose-response from 10 μM to 1.87 nM, read-out: Inhibition of fibrosis EC50. In outline: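 LL29 IPF lung fibroblasts in F12 with 1% FBS, compound (11-point, 10 μM to 1.87 nM, 0.1% DMSO) plus TGF-β1 20 ng/mL for 4 days at 37° C. αSMA-positive % of SYTOX-negative cells by immunofluorescence imaging, normalized to TGF-β1 wells; EC50 from non-linear regression of triplicates.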

The test system of experiment [3] is primary human mesenchymal stem cells (hMSCs). The experiment in a line: Chondrogenesis induction in primary human mesenchymal stem cells (nodule imaging, Rhodamine B/Nile Red). Particulars: 144 h, 6 days; for EC (100% TGF-beta3 activity): concentration required to induce chondrogenesis equivalent to TGF-β3 positive control, read-out: Conc (nM) of 100% TGF-β3 activity; for Emax: relative to TGF-β3 (10 ng/mL) positive control, read-out: Max. Activity as % TGF-β3 activity. The procedure:
The above synthesized compounds were screened using primary human mesenchymal stem cells (hMSCs) to determine their ability to induce chondrogenesis (process by which cartilage is developed).
Primary human mesenchymal stem cells (hMSCs) were purchased from Lonza (Walkersville, Md.) and expanded in Mesenchymal Stem Cell Growth Media (Lonza). Cells between passage 3 and 6 were used for the experiments.
Each compound was dissolved in DMSO as a 10 mM stock and used to prepare compound source plates. Serial dilution (1:3, 6-point dose-response curves from 2700 nM to 10 nM) and compound transfer was performed using the ECHO 550 (Labcyte, Sunnyvale, Calif.) into 96-well clear bottom assay plates (Greiner Bio-One) with appropriate DMSO backfill for a final DMSO concentration of 0.03%. hMSCs were plated at 20,000 cells/well in 250 μL/well Incomplete Chondrogenic Induction Medium (Lonza; DMEM, dexamethasone, ascorbate, insulin-transferrin-selenium [ITS supplement], gentamycin-amphotericin [GA-1000], sodium pyruvate, proline and L-glutamine). TGF-β3 (10 ng/mL) was used as a positive control for differentiation while negative control wells were treated with 75 nL DMSO for normalization and calculating EC50 values. Cells were incubated at 37° C. and 5% CO2 for 6 days. To image chondrogenic nodules, the cells were fixed using 4% formaldehyde (Electron Microscopy Sciences), and stained with 2 μg/mL Rhodamine B (Sigma-Aldrich) and 20 μM Nile Red (Sigma-Aldrich) [Johnson K., et. al, A Stem Cell-Based Approach to Cartilage Repair, Science, (2012), 336(6082), 717-721]. The nodules imaged (4 images per well at 4× magnification) by excitation at 531 nm and emission at 625 nm and quantified using the CellInsight CX5 (Thermo Scientific). Number of nodules in each well was normalized to the average of 3 DMSO treated wells on the same plate using Excel (Microsoft Inc.). The normalized averages (fold change over DMSO) of 3 replicate wells for each compound concentration were calculated. Due to solubility limitations of some of the compounds, curve fitting was incomplete leading to inaccurate EC50 determinations.
Using TGF-03 as a positive control, the concentration of test compounds required to induce equivalent levels of chondrogenesis is reported. In addition, the maximum activity of each compound and the respective dose that each compound reached maximum chondrogenesis activity is reported.

The subject of experiment [4] is ARPE-19 cells. As to the kind of experiment: Transdifferentiation of ARPE-19 cells into eye neuronal cells [photoreceptors] (PAX6 staining). Particulars: Homo sapiens, 40 hours, normalized to DMSO. On the procedure: The above synthesized compounds were screened using ARPE-19 cells [a spontaneously arising retinal pigment epithelia (RPE) cell line] to determine their ability to transdifferentiate ARPE-19 into eye neuronal cells [photoreceptors].
ARPE-19 cells are cultured in standard culture medium containing Dulbecco's Modified Eagle's Medium and Ham's F12 Nutrient Mixture (DMEM/F12) mix (1:1)+GlutaMax with 1% penicillin-Streptomycin and 10% FBS (Fetal Bovine Serum). Cells are incubated at 37° C. with 5% CO2. Cells are trypsinized and plated onto 384-well pre-spotted plate at a density of 3000 cells/well in 50 uL of media. Plating media: DMEM/F12 (1:1)+3% charcoal filtered-FBS+GlutaMax+1% pen/Strep. Cells are incubated at 37° C. with 5% CO2. At 40 hours, cells were fixed for 15 min with 10% Buffered Formalin. Cells were then washed 3 times with PBS for 5 min each, permeablize using 0.3% Triton X-100 in 1×PBS for 30 min, block for 1 hr with 2% BSA in 1×PBS with 0.1% Triton X-100. The primary antibody (1:100 PAX6 Santa Cruz Biotech; sc-81649) was diluted and 10 μL/well was added to the cells. The cells were incubated overnight at 4° C. […] Readings were normalized to DMSO only treated cells, and normalized activities were utilized for EC50 calculations using the dose-response log (activator) vs. response-variable slope (four parameters) nonlinear regression feature available in GraphPad Prism 5.0 or 6.0.

In the case of `CCNCc1cncc(-c2cc3c(-c4nc5c(-c6cccc(F)c6)cncc5[nH]4)n[nH]c3cn2)c1` [Compound 6, N-((5-(3-(7-(3-Fluorophenyl)-3H-imidazo[4,5-c]pyridin-2-yl)-1H-pyrazolo[3,4-c]pyridin-5-yl)pyridin-3-yl)methyl)ethanamine], the IC50 – broadly, the concentration needed to halve the response being measured – in experiment [1] came to 0.0135 µM. The EC50 – broadly, the concentration needed to bring the measured effect to its halfway point – in experiment [2] came to 0.511 µM. Moreover, in experiment [3], the EC (100% TGF-beta3 activity) amounted to 136 nM and the Emax is 300%.

Turning to `CCNCc1cncc(-c2cc3c(-c4nc5c(-c6ccc(F)cc6)cncc5[nH]4)n[nH]c3cn2)c1` [Compound 32, N-((5-(3-(7-(4-Fluorophenyl)-3H-imidazo[4,5-c]pyridin-2-yl)-1H-pyrazolo[3,4-c]pyridin-5-yl)pyridin-3-yl)methyl)ethanamine], the IC50 in experiment [1] was 0.0143 µM. Further, in experiment [2], the EC50 was at most 0.009 µM. In addition, the EC (100% TGF-beta3 activity) in experiment [3] was found to be 110 nM.

In experiment [1], `FC1(F)CCN(Cc2cncc(-c3cc4c(-c5nc6c(N7CCCCC7)cncc6[nH]5)n[nH]c4cn3)c2)C1` [Compound 181, 5-(5-((3,3-Difluoropyrrolidin-1-yl)methyl)pyridin-3-yl)-3-(7-(piperidin-1-yl)-3H-imidazo[4,5-c]pyridin-2-yl)-1H-pyrazolo[3,4-c]pyridine] returned an IC50 of 0.0448 µM. Besides, in experiment [2], the EC50 is at most 0.009 µM. In addition, in experiment [3], the EC (100% TGF-beta3 activity) came out at 100 nM and the Emax is 10%.

In experiment [1], `CCCC(=O)Nc1cncc(-c2cc3c(-c4nc5c(-c6ccsc6)cncc5[nH]4)n[nH]c3cn2)c1` [Compound 251, N-(5-(3-(7-(Thiophen-3-yl)-3H-imidazo[4,5-c]pyridin-2-yl)-1H-pyrazolo[3,4-c]pyridin-5-yl)pyridin-3-yl)butyramide] had an IC50 of 0.033 µM. Besides, the EC50 in experiment [2] is at most 0.009 µM. Further, the EC (100% TGF-beta3 activity) in experiment [3] worked out at 42 nM.

On to `CCC(=O)Nc1cncc(-c2cc3c(-c4nc5c(-c6cccs6)cncc5[nH]4)n[nH]c3cn2)c1` [Compound 287, N-(5-(3-(7-(Thiophen-2-yl)-3H-imidazo[4,5-c]pyridin-2-yl)-1H-pyrazolo[3,4-c]pyridin-5-yl)pyridin-3-yl)propionamide], for which inhibition in experiment [1] was half-maximal at 0.0306 µM (IC50). Besides, the EC50 in experiment [2] amounted to 0.319 µM. In experiment [3], the EC (100% TGF-beta3 activity) is 84.2 nM and the Emax came to 300%.

`CC(C)CC(=O)Nc1cncc(-c2cc3c(-c4nc5c(-c6ccc(F)s6)cncc5[nH]4)n[nH]c3cn2)c1` [Compound 314, N-(5-(3-(7-(5-Fluorothiophen-2-yl)-3H-imidazo[4,5-c]pyridin-2-yl)-1H-pyrazolo[3,4-c]pyridin-5-yl)pyridin-3-yl)-3-methylbutanamide] registered an IC50 in experiment [1] of 0.0074 µM. Further, in experiment [2], the EC50 turned out to be 0.173 µM. In addition, in experiment [3], the EC (100% TGF-beta3 activity) stood at 180 nM and the Emax stood at 900%.

Take `CC(C)(C)C(=O)Nc1cncc(-c2cc3c(-c4nc5c(-c6ccc(F)s6)cncc5[nH]4)n[nH]c3cn2)c1` [Compound 320, N-(5-(3-(7-(5-Fluorothiophen-2-yl)-3H-imidazo[4,5-c]pyridin-2-yl)-1H-pyrazolo[3,4-c]pyridin-5-yl)pyridin-3-yl)pivalamide]: the IC50 in experiment [1] was 0.0037 µM. Also, the EC50 in experiment [2] was determined as 0.103 µM. The EC (100% TGF-beta3 activity) in experiment [3] is 41 nM.

For the compound `Cc1ccc(-c2cncc3[nH]c(-c4n[nH]c5cnc(-c6cncc(N)c6)cc45)nc23)s1` [Compound 341, 5-(3-(7-(5-Methylthiophen-2-yl)-3H-imidazo[4,5-c]pyridin-2-yl)-1H-pyrazolo[3,4-c]pyridin-5-yl)pyridin-3-amine], in experiment [1], the IC50 was 0.0058 µM. Also, the EC50 in experiment [2] is at most 0.009 µM. Also, in experiment [3], the EC (100% TGF-beta3 activity) is 162 nM and the Emax is 100%.

For the compound `Cc1ccc(-c2cncc3[nH]c(-c4n[nH]c5cnc(-c6cncc(NC(=O)C7CCC7)c6)cc45)nc23)s1` [Compound 358, N-(5-(3-(7-(5-Methylthiophen-2-yl)-3H-imidazo[4,5-c]pyridin-2-yl)-1H-pyrazolo[3,4-c]pyridin-5-yl)pyridin-3-yl)cyclobutanecarboxamide], in experiment [1], the IC50 amounted to 0.0067 µM. Besides, the EC50 in experiment [2] turned out to be 0.019 µM. For the same compound, in experiment [3], the EC (100% TGF-beta3 activity) was determined as 231 nM and the Emax stood at 100%.

On to `CCCC(=O)Nc1cncc(-c2cc3c(-c4nc5c(-c6cc(F)cc(CNS(C)(=O)=O)c6)cncc5[nH]4)n[nH]c3cn2)c1` [Compound 407, N-(5-(3-(7-(3-Fluoro-5-(methylsulfonamidomethyl)phenyl)-3H-imidazo[4,5-c]pyridin-2-yl)-1H-pyrazolo[3,4-c]pyridin-5-yl)pyridin-3-yl)butyramide], for which, in experiment [1], the IC50 worked out at 0.0239 µM. The EC50 in experiment [2] was above 10 µM. Moreover, in experiment [3], the EC (100% TGF-beta3 activity) stood at 79.2 nM and the Emax turned out to be 30%.

`Cn1cc(-c2cc3c(-c4nc5c(-c6cccc(F)c6)cncc5[nH]4)n[nH]c3cn2)cn1` [Compound 888, 3-(7-(3-Fluorophenyl)-3H-imidazo[4,5-c]pyridin-2-yl)-5-(1-methyl-1H-pyrazol-4-yl)-1H-pyrazolo[3,4-c]pyridine] gave an IC50 in experiment [1] of 0.07 µM. Moreover, the EC50 in experiment [2] is at most 0.009 µM. Moreover, in experiment [3], the EC (100% TGF-beta3 activity) turned out to be 71 nM and the Emax was 100%.

In experiment [1], `NC1CN(c2cncc(-c3cc4c(-c5nc6c(-c7cccc(F)c7)cncc6[nH]5)n[nH]c4cn3)n2)C1` [Compound 890, 1-(6-(3-(7-(3-Fluorophenyl)-3H-imidazo[4,5-c]pyridin-2-yl)-1H-pyrazolo[3,4-c]pyridin-5-yl)pyrazin-2-yl)azetidin-3-amine] yielded an IC50 of 0.103 µM. In addition, the EC50 is 0.009 µM in experiment [4] and 0.088 µM in experiment [2].

The compound `CN(C)CCOc1cncc(-c2cc3c(-c4nc5c(-c6cccc(F)c6)cncc5[nH]4)n[nH]c3cn2)c1` [Compound 895, 2-((5-(3-(7-(3-Fluorophenyl)-3H-imidazo[4,5-c]pyridin-2-yl)-1H-pyrazolo[3,4-c]pyridin-5-yl)pyridin-3-yl)oxy)-N,N-dimethylethan-1-amine] yielded a 50% inhibitory concentration (IC50) in experiment [1] of 0.437 µM. Also, the EC50 in experiment [4] was 0.162 µM; in experiment [2], at least 9.99 µM.

Take `COc1cncc(-c2cc3c(-c4nc5c(-c6cccc(F)c6)cncc5[nH]4)n[nH]c3cn2)c1` [Compound 896, 3-(7-(3-Fluorophenyl)-3H-imidazo[4,5-c]pyridin-2-yl)-5-(5-methoxypyridin-3-yl)-1H-pyrazolo[3,4-c]pyridine]: in experiment [1], the midpoint of inhibition, the IC50, lay at 0.031 µM. For the same compound, in experiment [2], the EC50 is at most 0.009 µM. In addition, in experiment [3], the EC (100% TGF-beta3 activity) amounted to 140 nM and the Emax came out at 300%.
